The text below walks through data of PubChem BioAssay (NCI).

Test in all cases: inhibition of tumour cell growth, NCI panel, 48 h
The subject of experiment [1] is SNB-19 CNS.
In experiment [2] the test system is SW-620 colon.
Experiment [3] relates to K-562 leukemia.
Experiment [4] relates to HOP-92 NSCLC.
The subject of experiment [5] is NCI-H522 lung.
Experiment [6] deals with A549 NSCLC.
Experiment [7] relates to LOX IMVI melanoma.
Experiment [8] deals with RPMI-8226 leukemia.
Experiment [9] relates to UACC-62 melanoma.
Experiment [10] concerns 786-0 renal.
Experiment [11] deals with SNB-75 CNS.
The test system of experiment [12] is HCT-15 colon.
For experiment [13], the system named is SN12C renal.
In experiment [14] the test system is IGROV1 ovarian.
For experiment [15], the system named is RXF 393 renal.
For experiment [16], the system named is OVCAR-3 ovarian.
Experiment [17] relates to SF-295 CNS.
The test system of experiment [18] is CCRF-CEM leukemia.
In experiment [19] the test system is A498 renal.
For experiment [20], the system named is HCC-2998 colon.

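Interpolation was linear, between the two tested concentrations surrounding the appropriate level; five concentrations were tested over 48 hours in 96-well plates. TGI: total growth inhibition.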 A value given as a limit tells only on which side of the number the result lay.

As for `CCN1C(=O)C(=C/C=C/C=C2/N(C)c3ccccc3C2(C)C)C(=O)N(CC)C1=S`, the TGI in [1], in [2], in [3], in experiment [4], in experiment [5] and in experiment [6] was greater than 100 µM each time. For the same molecule, the TGI in experiment [7], in experiment [8], in experiment [9], in [10], in experiment [11] and in [12] was greater than 100 µM each time. Also, the TGI in experiment [13], in [14], in [15], in [16], in [17] and in experiment [18] was greater than 100 µM throughout. In experiment [19], the TGI is greater than 100 µM.
In the case of `CC1(C)CC2=C(Sc3ccccc3N2)C(=O)C1C(=O)C(=O)Nc1cccc([N+](=O)[O-])c1` (stereo not given), the TGI in [1], in experiment [2], in experiment [3], in experiment [4], in experiment [5] and in experiment [6] was greater than 100 µM in each case. Further, the TGI in experiment [20], in experiment [7], in experiment [8], in experiment [9], in [10] and in [11] was greater than 100 µM in each case. Also, the TGI in [12], in experiment [13], in experiment [14], in experiment [16], in experiment [17] and in [18] was greater than 100 µM in each case. Also, in experiment [19], the TGI is greater than 100 µM.
Turning to `C/C=C1\C=C(OC)CN(CCc2c[nH]c3ccccc23)C1`, the TGI in [1] is greater than 100 µM; in experiment [2], greater than 100 µM; in experiment [3] it was greater than 100 µM; in [5] it was greater than 100 µM; in experiment [6], greater than 100 µM; in experiment [20], 33.1 µM. Moreover, the TGI in experiment [7], in experiment [8], in [9], in [10], in [11] and in [12] was greater than 100 µM each time. Moreover, the TGI in [13], in [14], in [16], in [17], in experiment [18] and in [19] was greater than 100 µM each time.
Consider `C=CC1CCC[N+]1(CC(=O)OCC)Cc1ccccc1` (stereo not given), for which the TGI in experiment [1], in experiment [2], in [3], in experiment [4], in experiment [6] and in [20] was greater than 100 µM in each case. The TGI in [8], in experiment [9], in [10], in experiment [11], in experiment [12] and in experiment [13] was greater than 100 µM in each case. Further, the TGI in experiment [14], in [16], in experiment [17], in [18] and in [19] was greater than 100 µM in each case.
On to `COc1ccc(P2(=S)Oc3ccccc3-c3ccccc3O2)cc1`, for which the TGI in [1] is greater than 100 µM; in experiment [2], greater than 100 µM; in experiment [3], greater than 100 µM; in [4], 85.3 µM; in experiment [6], greater than 54.9 µM; in experiment [20], 9.56 µM. For the same molecule, the TGI in [7], in [9], in experiment [10], in experiment [11], in [12] and in experiment [14] was greater than 100 µM each time. In addition, the TGI is 0.493 µM in experiment [16], greater than 100 µM in experiment [17], greater than 100 µM in experiment [18] and 4.01 µM in experiment [19].
Regarding `CC(O)c1cc2c(s1)C(=O)c1ccsc1C2=O` (stereo not given), the TGI in experiment [1] came to 0.553 µM; in experiment [2], 0.511 µM; in [3], 0.412 µM; in experiment [4], 0.967 µM; in experiment [5], 0.381 µM; in experiment [6], 0.373 µM. Further, the TGI in experiment [20] came out at 0.576 µM; in experiment [8], 0.416 µM; in [9], 0.0733 µM; in experiment [10] it was 2.83 µM; in experiment [11] it was 0.166 µM; in experiment [12], 0.118 µM. In addition, the TGI in [13] came to 0.238 µM; in experiment [14], 1.25 µM; in experiment [15], 0.56 µM; in [16], 0.169 µM; in [17], 0.18 µM; in experiment [18], 0.781 µM. The TGI in [19] was 2.95 µM.
For the molecule `CN=c1c2c(c3[nH]c4ccccc4c4cnc1c34)NCCC2=O`, the TGI in experiment [1], in experiment [2], in experiment [3], in experiment [4], in [5] and in [6] was greater than 10 µM each time. In addition, the TGI in experiment [20], in [8], in experiment [10], in experiment [11], in experiment [12] and in experiment [13] was greater than 10 µM throughout. Moreover, the TGI in experiment [14], in experiment [15], in experiment [16], in experiment [17], in [18] and in experiment [19] was greater than 10 µM each time.
With `COc1cc2nc(-c3cccs3)nc(N3CCN(c4ccccc4C(F)(F)F)CC3)c2cc1OC`, the TGI in experiment [1], in [2], in experiment [3], in experiment [4], in experiment [5] and in experiment [6] was greater than 100 µM each time. The TGI in [20], in experiment [7], in [8], in experiment [9], in experiment [10] and in experiment [11] was greater than 100 µM each time. The TGI in experiment [12], in [13], in experiment [14], in [16], in experiment [17] and in experiment [18] was greater than 100 µM in each case. The molecule also had a TGI in [19] greater than 100 µM.
